Reference: ChEMBL document CHEMBL1137396, “Discovery of (1R,5S)-N-[3-amino-1-(cyclobutylmethyl)-2,3-dioxopropyl]- 3-[2(S)-[[[(1,1-dimethylethyl)amino]carbonyl]amino]-3,3-dimethyl-1-oxobutyl]- 6,6-dimethyl-3-azabicyclo[3.1.0]hexan-2(S)-carboxamide (SCH 503034), a selective, potent, orally bioavailable hepatitis C virus NS3 protease …” (J Med Chem, 2006)

Key:
NS3 = NS3 (Hepatitis C virus, UniProt A3EZJ3); experiment: Binding affinity at HCV NS3 protease; parameters: species or system Hepatitis C virus subtype 1b
Sequence of NS3 (A3EZJ3 whole entry): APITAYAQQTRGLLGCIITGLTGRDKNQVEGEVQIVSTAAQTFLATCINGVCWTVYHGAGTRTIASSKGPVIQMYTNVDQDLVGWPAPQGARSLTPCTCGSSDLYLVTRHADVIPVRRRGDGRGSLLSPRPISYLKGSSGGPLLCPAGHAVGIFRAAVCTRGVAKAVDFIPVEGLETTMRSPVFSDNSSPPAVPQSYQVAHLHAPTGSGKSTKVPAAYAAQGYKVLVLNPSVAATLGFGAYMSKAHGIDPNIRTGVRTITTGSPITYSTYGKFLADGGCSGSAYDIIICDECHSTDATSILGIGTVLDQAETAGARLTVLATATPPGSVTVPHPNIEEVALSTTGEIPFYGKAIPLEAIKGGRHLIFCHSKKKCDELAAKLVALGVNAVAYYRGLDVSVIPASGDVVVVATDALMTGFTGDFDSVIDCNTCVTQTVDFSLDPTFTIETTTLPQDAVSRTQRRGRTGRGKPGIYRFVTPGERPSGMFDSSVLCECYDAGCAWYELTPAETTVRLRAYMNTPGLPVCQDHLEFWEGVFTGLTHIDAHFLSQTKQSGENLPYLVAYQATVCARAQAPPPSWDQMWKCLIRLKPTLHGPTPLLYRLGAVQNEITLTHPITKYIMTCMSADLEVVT

[1] = Selectivity for human neutrophil elastase (HNE) over HCV NS3 protease
[2] = AUC in rat; assay type: ADME, organism-based; details: plasma
Huh-5-2 = experiment: Cytotoxicity against hepatoma cell line containing HCV replicon measured as change in GAPDH RNA level; assay type: functional, Homo sapiens
Hepatocyte = experiment: Inhibition of HCV replication in hepatocytes measured by cellular replicon assay; assay type: functional; details: Hepatitis C virus
[3] = AUC in rat at 10 mg/kg, po; assay type: ADME, organism-based; parameters: dose 10 mg/kg, route oral; details: plasma
[4] = Bioavailability in rat at 10 mg/kg, po; assay type: ADME, organism-based; details: in vivo
[5] = AUC(0-6h) in rat at 10 mg, po; assay type: ADME, organism-based; parameters: time < 6 hr, dose 10 mg, route oral; details: plasma

Row | Compound | Ki (NS3) | Selectivity ratio [1] | other results
1 | CC(C)(C)OC(=O)N[C@H](C(=O)N1C[C@H]2[C@@H](C1C(=O)NC(CC1CCO1)C(=O)C(N)=O)C2(C)C)C1CCCCC1 (stereo partly drawn) | 90 nM | 140 | –
2 | CC(C)(C)OC(=O)N[C@H](C(=O)N1C[C@H]2[C@@H]([C@H]1C(=O)NC(CC1CC1)C(=O)C(N)=O)C2(C)C)C1(C)CC1 (stereo partly drawn) | 300 nM | – | –
3 | CC(C)OC(=O)N[C@H](C(=O)N1C[C@H]2[C@@H]([C@H]1C(=O)NC(CC1CC1)C(=O)C(N)=O)C2(C)C)C(C)(C)C (stereo partly drawn) | 150 nM | 100 | –
4 | CCCC(NC(=O)[C@@H]1[C@@H]2[C@H](CN1C(=O)[C@@H](NC(=O)OC(C)(C)C)C1CCCCC1)C2(C)C)C(=O)C(=O)NCC(=O)N[C@H](C)C1CCCCC1 (stereo partly drawn) | 100 nM | – | AUC [2]: 0.09 µM·h
5 | C=C(C)CC(NC(=O)[C@@H]1[C@@H]2[C@H](CN1C(=O)[C@@H](NC(=O)OC(C)(C)C)C1CCCCC1)C2(C)C)C(=O)C(N)=O (stereo partly drawn) | 300 nM | 2 | –
6 | CN(C(=O)N[C@H](C(=O)N1C[C@H]2[C@@H]([C@H]1C(=O)NC(CC1CC1)C(=O)C(N)=O)C2(C)C)C(C)(C)C)C(C)(C)C (stereo partly drawn) | 60 nM | 45 | Activity (Huh-5-2): >5 µM; EC90 (Hepatocyte): > 1000 nM
7 | CCCCNC(=O)C(=O)C(CCC)NC(=O)[C@@H]1[C@@H]2[C@H](CN1C(=O)[C@@H](NC(=O)OC(C)(C)C)C1CCCCC1)C2(C)C (stereo partly drawn) | 1900 nM | – | –
8 | CC(C)(C)OC(=O)N[C@H](C(=O)N1C[C@H]2[C@@H]([C@H]1C(=O)NC(CC1COC1)C(=O)C(N)=O)C2(C)C)C1CCCCC1 (stereo partly drawn) | 400 nM | – | Activity (Huh-5-2): >5 µM; EC90 (Hepatocyte): > 1000 nM
9 | CC(C)(C)OC(=O)N[C@H](C(=O)N1C[C@H]2[C@@H]([C@H]1C(=O)NC(CC1CC1)C(=O)C(N)=O)C2(C)C)C1CCCCC1 (stereo partly drawn) | 25 nM | 23 | AUC [3]: 1.3 µM·h; Activity (Huh-5-2): >5 µM; bioavailability [4]: 3.4%; EC90 (Hepatocyte): 400 nM
10 | CCCC(NC(=O)[C@@H]1[C@@H]2[C@H](CN1C(=O)[C@@H](NC(=O)OC(C)(C)C)C1CCCCC1)C2(C)C)C(=O)C(=O)NCC(=O)NCc1cccs1 (stereo partly drawn) | 60 nM | – | AUC [2]: 0.73 µM·h
11 | CCCC(NC(=O)[C@@H]1[C@@H]2[C@H](CN1C(=O)[C@@H](NC(=O)OC(C)(C)C)C1CCCCC1)C2(C)C)C(=O)C(=O)NCC(=O)NCC1CC1 (stereo partly drawn) | 130 nM | – | –
12 | CC(C)NC(=O)N[C@H](C(=O)N1C[C@H]2[C@@H]([C@H]1C(=O)NC(CC1CCC1)C(=O)C(N)=O)C2(C)C)C(C)(C)C (stereo partly drawn) | 16 nM | 4200 | AUC [3]: 0.83 µM·h; Activity (Huh-5-2): >5 µM; bioavailability [4]: 13%; EC90 (Hepatocyte): 730 nM
13 | C=CCNC(=O)C(=O)C(CCC)NC(=O)[C@@H]1[C@@H]2[C@H](CN1C(=O)[C@@H](NC(=O)OC(C)(C)C)C1CCCCC1)C2(C)C (stereo partly drawn) | 280 nM | – | AUC(0-t) at 6 h [5]: 26 µM·h
14 | CC(C)(C)OC(=O)N[C@H](C(=O)N1C[C@H]2[C@@H]([C@H]1C(=O)NC1(C(=O)C(N)=O)CC1)C2(C)C)C1CCCCC1 | > 14000 nM | – | –
15 | CCCC(NC(=O)[C@@H]1[C@@H]2[C@H](CN1C(=O)[C@@H](NC(=O)OC(C)(C)C)C1CCCCC1)C2(C)C)C(=O)C(=O)O (stereo partly drawn) | 110 nM | – | –
16 | CCCC(NC(=O)[C@@H]1[C@@H]2[C@H](CN1C(=O)[C@@H](NC(=O)OC(C)(C)C)C1CCCCC1)C2(C)C)C(=O)C(=O)NC (stereo partly drawn) | 1500 nM | – | AUC(0-t) at 6 h [5]: 13.4 µM·h
17 | CC(C)(C)OC(=O)N[C@H](C(=O)N1C[C@H]2[C@@H]([C@H]1C(=O)NC(CC1CCCC1)C(=O)C(N)=O)C2(C)C)C1CCCCC1 (stereo partly drawn) | 150 nM | 370 | –
18 | CCCC(NC(=O)[C@@H]1[C@@H]2[C@H](CN1C(=O)[C@@H](NC(=O)OC(C)(C)C)C1CCCCC1)C2(C)C)C(=O)C(=O)NCC(=O)N[C@H](C)c1ccccc1 (stereo partly drawn) | 55 nM | – | –
19 | CC(C)CC(NC(=O)[C@@H]1[C@@H]2[C@H](CN1C(=O)[C@@H](NC(=O)OC(C)(C)C)C1CCCCC1)C2(C)C)C(=O)C(N)=O (stereo partly drawn) | 400 nM | 9 | –
20 | CC(C)[C@H](C)OC(=O)N[C@H](C(=O)N1C[C@H]2[C@@H]([C@H]1C(=O)NC(CC1CCC1)C(=O)C(N)=O)C2(C)C)C(C)(C)C (stereo partly drawn) | 36 nM | 3800 | Activity (Huh-5-2): >5 µM; EC90 (Hepatocyte): 700 nM
21 | CC(C)(C)OC(=O)N[C@H](C(=O)N1C[C@H]2[C@@H]([C@H]1C(=O)NC(CC1CCCCC1)C(=O)C(N)=O)C2(C)C)C1CCCCC1 (stereo partly drawn) | > 12000 nM | – | –
22 | CC(C)(C)OC(=O)N[C@H](C(=O)N1C[C@H]2[C@@H]([C@H]1C(=O)NC(CC1CCC1)C(=O)C(N)=O)C2(C)C)C(C)(C)O (stereo partly drawn) | 220 nM | 55 | –
23 | CC(C)(C)NC(=O)N[C@H](C(=O)N1C[C@H]2[C@@H]([C@H]1C(=O)NC(CC1CCC1)C(=O)C(N)=O)C2(C)C)C1CCCCC1 (stereo partly drawn) | 50 nM | 90 | –

Row | Compound | Ki (NS3) | Selectivity ratio [1] | other results
24 | CC(C)[C@H](NC(=O)OC(C)(C)C)C(=O)N1C[C@H]2[C@@H]([C@H]1C(=O)NC(CC1CC1)C(=O)C(N)=O)C2(C)C (stereo partly drawn) | 210 nM | 19 | –
25 | CCCC(NC(=O)[C@@H]1[C@@H]2[C@H](CN1C(=O)[C@@H](NC(=O)OC(C)(C)C)C1CCCCC1)C2(C)C)C(=O)C(=O)N(C)C (stereo partly drawn) | > 13000 nM | – | –
26 | CCCC(NC(=O)[C@@H]1[C@@H]2[C@H](CN1C(=O)[C@@H](NC(=O)OC(C)(C)C)C1CCCCC1)C2(C)C)C(=O)C(N)=O (stereo partly drawn) | 100 nM | 3 | AUC(0-t) at 6 h [5]: 2.52 µM·h
27 | C[C@@H](NC(=O)N[C@H](C(=O)N1C[C@H]2[C@@H]([C@H]1C(=O)NC(CC1CCC1)C(=O)C(N)=O)C2(C)C)C(C)(C)C)C(C)(C)C (stereo partly drawn) | 35 nM | 380 | Activity (Huh-5-2): >5 µM; EC90 (Hepatocyte): 400 nM
28 | CCC(NC(=O)[C@@H]1[C@@H]2[C@H](CN1C(=O)[C@@H](NC(=O)OC(C)(C)C)C1CCCCC1)C2(C)C)C(=O)C(N)=O (stereo partly drawn) | 740 nM | – | –
29 | CC(C)NC(=O)N[C@H](C(=O)N1C[C@H]2[C@@H]([C@H]1C(=O)NC(CC1CC1)C(=O)C(N)=O)C2(C)C)C(C)(C)C (stereo partly drawn) | 140 nM | 160 | –
30 | CC1(NC(=O)N[C@H](C(=O)N2C[C@H]3[C@@H]([C@H]2C(=O)NC(CC2CC2)C(=O)C(N)=O)C3(C)C)C(C)(C)C)CC1 (stereo partly drawn) | 80 nM | 100 | Activity (Huh-5-2): >5 µM; EC90 (Hepatocyte): 900 nM
31 | CC(C)(C)OC(=O)N[C@H](C(=O)N1C[C@H]2[C@@H]([C@H]1C(=O)NC(CC1CC1)C(=O)C(N)=O)C2(C)C)C1Cc2ccccc2C1 (stereo partly drawn) | 82 nM | 49 | Activity (Huh-5-2): >5 µM; EC90 (Hepatocyte): > 1000 nM
32 | CC(C)COC(=O)N[C@H](C(=O)N1C[C@H]2[C@@H]([C@H]1C(=O)NC(CC1CC1)C(=O)C(N)=O)C2(C)C)C(C)(C)C (stereo partly drawn) | 70 nM | 160 | –
33 | CC(C)(C)OC(=O)N[C@H](C(=O)N1C[C@H]2[C@@H]([C@H]1C(=O)NC(CC1CCC1)C(=O)C(N)=O)C2(C)C)C1Cc2ccccc2C1 (stereo partly drawn) | 270 nM | – | Activity (Huh-5-2): >5 µM; EC90 (Hepatocyte): 2000 nM
34 | CC(C)(C)[C@H](NC(=O)OC1CC1)C(=O)N1C[C@H]2[C@@H]([C@H]1C(=O)NC(CC1CC1)C(=O)C(N)=O)C2(C)C (stereo partly drawn) | 300 nM | – | –
35 | CC(C)(C)OC(=O)N[C@H](C(=O)N1C[C@H]2[C@@H]([C@H]1C(=O)NC(CC1CC1)C(=O)C(N)=O)C2(C)C)C1CCCC1 (stereo partly drawn) | 100 nM | 11 | –
36 | CCCC(NC(=O)[C@@H]1[C@@H]2[C@H](CN1C(=O)[C@@H](NC(=O)OC(C)(C)C)C1CCCCC1)C2(C)C)C(=O)C(=O)NCC(=O)NCc1ccccc1 (stereo partly drawn) | 56 nM | – | AUC [2]: 1.27 µM·h
37 | CN(C(=O)N[C@H](C(=O)N1C[C@H]2[C@@H]([C@H]1C(=O)NC(CC1CCC1)C(=O)C(N)=O)C2(C)C)C(C)(C)C)C(C)(C)C (stereo partly drawn) | 100 nM | 270 | –
38 | C=CCCC(NC(=O)[C@@H]1[C@@H]2[C@H](CN1C(=O)[C@@H](NC(=O)OC(C)(C)C)C1CCCCC1)C2(C)C)C(=O)C(N)=O (stereo partly drawn) | 150 nM | 2 | –
39 | CC(C)(C)OC(=O)N[C@H](C(=O)N1C[C@H]2[C@@H](C1C(=O)NC(CC(F)(F)F)C(=O)C(N)=O)C2(C)C)C1CCCCC1 (stereo partly drawn) | 50 nM | 2 | Activity (Huh-5-2): >5 µM; EC90 (Hepatocyte): 700 nM
40 | CC(C)(C)OC(=O)N[C@H](C(=O)N1C[C@H]2[C@@H]([C@H]1C(=O)NC(CC1CCC1)C(=O)C(N)=O)C2(C)C)C(C)(C)C (stereo partly drawn) | 76 nM | 684 | Activity (Huh-5-2): >5 µM; EC90 (Hepatocyte): 800 nM
41 | CC(C)(C)OC(=O)N[C@H](C(=O)N1C[C@H]2[C@@H]([C@H]1C(=O)NC(CC1CCC1)C(=O)C(N)=O)C2(C)C)C1(C)CC1 (stereo partly drawn) | 700 nM | – | –
42 | CCCC(NC(=O)[C@@H]1[C@@H]2[C@H](CN1C(=O)[C@@H](NC(=O)OC(C)(C)C)C1CCCCC1)C2(C)C)C(=O)C(=O)NCC(=O)OC(C)(C)c1ccccc1 (stereo partly drawn) | 50 nM | – | –
43 | CCCC(NC(=O)[C@@H]1[C@@H]2[C@H](CN1C(=O)[C@@H](NC(=O)OC(C)(C)C)C1CCCCC1)C2(C)C)C(=O)C(=O)NCC(N)=O (stereo partly drawn) | 790 nM | – | –
44 | CC(C)(C)OC(=O)N[C@H](C(=O)N1C[C@H]2[C@@H]([C@H]1C(=O)NC(CC1CC1)C(=O)C(N)=O)C2(C)C)C(C)(C)C (stereo partly drawn) | – | – | Activity (Huh-5-2): >5 µM; EC90 (Hepatocyte): 600 nM
45 | CCCC(NC(=O)[C@@H]1[C@@H]2[C@H](CN1C(=O)[C@@H](NC(=O)OC(C)(C)C)C1CCCCC1)C2(C)C)C(=O)C(=O)NCC(=O)N[C@@H](C)C1CCCCC1 (stereo partly drawn) | 92 nM | – | –
46 | CC(C)(C)NC(=O)N[C@H](C(=O)N1C[C@H]2[C@@H]([C@H]1C(=O)NC(CC1CC1)C(=O)C(N)=O)C2(C)C)C1CCCCC1 (stereo partly drawn) | 50 nM | 38 | –
